Measurements from ChEMBL document CHEMBL5154681, “Small Amphiphilic Peptides: Activity Against a Broad Range of Drug-Resistant Bacteria and Structural Insight into Membranolytic Properties” (J Med Chem, 2022).
Values after ≈ are worked out from the molar mass of the structure shown. Square brackets hold non-standard residues; d marks the D form. Peptide text beside a SMILES is read from it. Bip = N[C@@H](Cc1ccc(-c2ccccc2)cc1)C(=O)O; Dip = N[C@H](C(=O)O)C(c1ccccc1)c1ccccc1; 2Nal = N[C@@H](Cc1ccc2ccccc2c1)C(=O)O

Experiments:
Escherichia coli = experiment: Antibacterial activity against Escherichia coli ATCC 25922 incubated for 24 hrs by microtiter plate method; assay type: functional; settings: Escherichia coli, ATCC 25922, 24 h, read-out: MIC
Staphylococcus aureus [1] = experiment: Antibacterial activity against Staphylococcus aureus ATCC 29213 incubated for 24 hrs by microtiter plate method; assay type: functional; settings: Staphylococcus aureus, ATCC 29213, read-out: MIC
Pseudomonas aeruginosa = experiment: Antibacterial activity against Pseudomonas aeruginosa ATCC 27883 incubated for 24 hrs by microtiter plate method; assay type: functional; settings: Pseudomonas aeruginosa, ATCC 27883, 24 h, read-out: MIC
[2] = Hemolytic activity in human RBC assessed as hemolysis incubated for 2 hrs by spectrophotometer analysis; assay type: toxicity, cell-based, Erythrocyte; settings: human red blood cells (erythrocytes)
Staphylococcus aureus [3] = experiment: Antibacterial activity against methicillin resistant Staphylococcus aureus ATCC BAA-1556 incubated for 24 hrs by microtiter plate method; assay type: functional; settings: Staphylococcus aureus, ATCC BAA-1556, 24 h, read-out: MIC

NCCCC[C@H](NC(=O)[C@H](CCCCN)NC(=O)[C@H](CCCCN)NC(=O)[C@@H](N)CCCCN)C(=O)N[C@@H](CCCCN)C(=O)N[C@H](C(=O)N[C@H](C(=O)N[C@H](C(=O)O)C(c1ccccc1)c1ccccc1)C(c1ccccc1)c1ccccc1)C(c1ccccc1)c1ccccc1 (H-KKKKK[Dip][Dip][Dip]-OH)
MIC (Escherichia coli): > 100 µg/mL
MIC (Staphylococcus aureus [1]): 50 µg/mL (≈ 37.6 µM)
MIC (Pseudomonas aeruginosa): > 100 µg/mL
HC50 at 2 h [2]: 280 µg/mL
MIC (Staphylococcus aureus [3]): 50 µg/mL (≈ 37.6 µM)

NCCCC[C@H](NC(=O)[C@H](CCCCN)NC(=O)[C@@H](N)CCCCN)C(=O)N[C@@H](CCCCN)C(=O)N[C@H](C(=O)N[C@H](C(=O)N[C@H](C(=O)O)C(c1ccccc1)c1ccccc1)C(c1ccccc1)c1ccccc1)C(c1ccccc1)c1ccccc1 (H-KKKK[Dip][Dip][Dip]-OH)
MIC (Escherichia coli): > 100 µg/mL
MIC (Staphylococcus aureus [1]): 25 µg/mL (≈ 20.8 µM)
MIC (Pseudomonas aeruginosa): > 100 µg/mL
HC50 at 2 h [2]: 255 µg/mL
MIC (Staphylococcus aureus [3]): 25 µg/mL (≈ 20.8 µM)

N=C(N)NCCC[C@H](NC(=O)[C@H](CCCNC(=N)N)NC(=O)[C@H](CCCNC(=N)N)NC(=O)[C@H](CCCNC(=N)N)NC(=O)[C@@H](N)CCCNC(=N)N)C(=O)N[C@@H](Cc1ccc2ccccc2c1)C(=O)N[C@@H](Cc1ccc2ccccc2c1)C(=O)N[C@@H](Cc1ccc2ccccc2c1)C(=O)O (H-RRRRR[2Nal][2Nal][2Nal]-OH)
MIC (Escherichia coli): 25 µg/mL (≈ 18 µM)
MIC (Staphylococcus aureus [1]): 6.2 µg/mL (≈ 4.46 µM)
MIC (Pseudomonas aeruginosa): 25 µg/mL (≈ 18 µM)
HC50 at 2 h [2]: 190 µg/mL
MIC (Staphylococcus aureus [3]): 6.2 µg/mL (≈ 4.46 µM)

N=C(N)NCCC[C@H](NC(=O)[C@H](CCCNC(=N)N)NC(=O)[C@H](CCCNC(=N)N)NC(=O)[C@@H](N)CCCNC(=N)N)C(=O)N[C@@H](CCCNC(=N)N)C(=O)N[C@H](C(=O)N[C@H](C(=O)N[C@H](C(=O)O)C(c1ccccc1)c1ccccc1)C(c1ccccc1)c1ccccc1)C(c1ccccc1)c1ccccc1 (H-RRRRR[Dip][Dip][Dip]-OH)
MIC (Escherichia coli): 25 µg/mL (≈ 17 µM)
MIC (Staphylococcus aureus [1]): 12.5 µg/mL (≈ 8.51 µM)
MIC (Pseudomonas aeruginosa): 50 µg/mL (≈ 34 µM)
HC50 at 2 h [2]: 165 µg/mL
MIC (Staphylococcus aureus [3]): 12.5 µg/mL (≈ 8.51 µM)

N=C(N)NCCC[C@H](NC(=O)[C@H](CCCNC(=N)N)NC(=O)[C@H](CCCNC(=N)N)NC(=O)[C@@H](N)CCCNC(=N)N)C(=O)N[C@@H](Cc1ccc2ccccc2c1)C(=O)N[C@@H](Cc1ccc2ccccc2c1)C(=O)O (H-RRRR[2Nal][2Nal]-OH)
MIC (Escherichia coli): 50 µg/mL (≈ 48.2 µM)
MIC (Staphylococcus aureus [1]): 6.2 µg/mL (≈ 5.98 µM)
MIC (Pseudomonas aeruginosa): > 100 µg/mL
HC50 at 2 h [2]: 180 µg/mL
MIC (Staphylococcus aureus [3]): 6.2 µg/mL (≈ 5.98 µM)

N=C(N)NCCC[C@H](NC(=O)[C@H](CCCNC(=N)N)NC(=O)[C@H](CCCNC(=N)N)NC(=O)[C@@H](N)CCCNC(=N)N)C(=O)N[C@@H](Cc1ccc2ccccc2c1)C(=O)N[C@@H](Cc1ccc2ccccc2c1)C(=O)N[C@@H](Cc1ccc2ccccc2c1)C(=O)N[C@@H](Cc1ccc2ccccc2c1)C(=O)O (H-RRRR[2Nal][2Nal][2Nal][2Nal]-OH)
MIC (Escherichia coli): 50 µg/mL (≈ 34.9 µM)
MIC (Staphylococcus aureus [1]): 12.5 µg/mL (≈ 8.73 µM)
MIC (Pseudomonas aeruginosa): > 100 µg/mL
HC50 at 2 h [2]: 70 µg/mL
MIC (Staphylococcus aureus [3]): 12.5 µg/mL (≈ 8.73 µM)

N=C(N)NCCC[C@H](NC(=O)[C@H](CCCNC(=N)N)NC(=O)[C@H](CCCNC(=N)N)NC(=O)[C@@H](N)CCCNC(=N)N)C(=O)N[C@@H](Cc1ccc(-c2ccccc2)cc1)C(=O)N[C@@H](Cc1ccc(-c2ccccc2)cc1)C(=O)N[C@@H](Cc1ccc(-c2ccccc2)cc1)C(=O)O (H-RRRR[Bip][Bip][Bip]-OH)
MIC (Escherichia coli): > 100 µg/mL
MIC (Staphylococcus aureus [1]): 6.2 µg/mL (≈ 4.72 µM)
MIC (Pseudomonas aeruginosa): 25 µg/mL (≈ 19 µM)
MIC (Staphylococcus aureus [3]): 12.5 µg/mL (≈ 9.52 µM)

N=C(N)NCCC[C@H](NC(=O)[C@H](CCCNC(=N)N)NC(=O)[C@H](CCCNC(=N)N)NC(=O)[C@@H](N)CCCNC(=N)N)C(=O)N[C@@H](Cc1ccc(-c2ccccc2)cc1)C(=O)N[C@@H](Cc1ccc(-c2ccccc2)cc1)C(=O)N[C@@H](Cc1ccc(-c2ccccc2)cc1)C(=O)N[C@@H](Cc1ccc(-c2ccccc2)cc1)C(=O)O (H-RRRR[Bip][Bip][Bip][Bip]-OH)
MIC (Escherichia coli): > 100 µg/mL
MIC (Staphylococcus aureus [1]): > 100 µg/mL
MIC (Pseudomonas aeruginosa): > 100 µg/mL
MIC (Staphylococcus aureus [3]): > 100 µg/mL

N=C(N)NCCC[C@H](NC(=O)[C@H](CCCNC(=N)N)NC(=O)[C@@H](N)CCCNC(=N)N)C(=O)N[C@@H](CCCNC(=N)N)C(=O)N[C@H](C(=O)N[C@H](C(=O)O)C(c1ccccc1)c1ccccc1)C(c1ccccc1)c1ccccc1 (H-RRRR[Dip][Dip]-OH)
MIC (Escherichia coli): 50 µg/mL (≈ 45.9 µM)
MIC (Staphylococcus aureus [1]): 12.5 µg/mL (≈ 11.5 µM)
MIC (Pseudomonas aeruginosa): 50 µg/mL (≈ 45.9 µM)
HC50 at 2 h [2]: 185 µg/mL
MIC (Staphylococcus aureus [3]): 12.5 µg/mL (≈ 11.5 µM)

N=C(N)NCCC[C@H](NC(=O)[C@H](CCCNC(=N)N)NC(=O)[C@@H](N)CCCNC(=N)N)C(=O)N[C@@H](CCCNC(=N)N)C(=O)N[C@H](C(=O)N[C@H](C(=O)N[C@H](C(=O)N[C@H](C(=O)O)C(c1ccccc1)c1ccccc1)C(c1ccccc1)c1ccccc1)C(c1ccccc1)c1ccccc1)C(c1ccccc1)c1ccccc1 (H-RRRR[Dip][Dip][Dip][Dip]-OH)
MIC (Escherichia coli): 50 µg/mL (≈ 32.6 µM)
MIC (Staphylococcus aureus [1]): 6.2 µg/mL (≈ 4.04 µM)
MIC (Pseudomonas aeruginosa): 50 µg/mL (≈ 32.6 µM)
HC50 at 2 h [2]: 75 µg/mL
MIC (Staphylococcus aureus [3]): 12.5 µg/mL (≈ 8.14 µM)

N=C(N)NCCC[C@H](NC(=O)[C@H](CCCNC(=N)N)NC(=O)[C@@H](N)CCCNC(=N)N)C(=O)N[C@@H](Cc1ccc2ccccc2c1)C(=O)N[C@@H](Cc1ccc2ccccc2c1)C(=O)N[C@@H](Cc1ccc2ccccc2c1)C(=O)O (H-RRR[2Nal][2Nal][2Nal]-OH)
MIC (Escherichia coli): 12.5 µg/mL (≈ 11.6 µM)
MIC (Staphylococcus aureus [1]): 6.2 µg/mL (≈ 5.75 µM)
MIC (Pseudomonas aeruginosa): 25 µg/mL (≈ 23.2 µM)
HC50 at 2 h [2]: 105 µg/mL
MIC (Staphylococcus aureus [3]): 6.2 µg/mL (≈ 5.75 µM)

N=C(N)NCCC[C@H](NC(=O)[C@H](CCCNC(=N)N)NC(=O)[C@@H](N)CCCNC(=N)N)C(=O)N[C@@H](Cc1ccc(-c2ccccc2)cc1)C(=O)N[C@@H](Cc1ccc(-c2ccccc2)cc1)C(=O)N[C@@H](Cc1ccc(-c2ccccc2)cc1)C(=O)O (H-RRR[Bip][Bip][Bip]-OH)
MIC (Escherichia coli): > 100 µg/mL
MIC (Staphylococcus aureus [1]): 50 µg/mL (≈ 43.2 µM)
MIC (Pseudomonas aeruginosa): > 100 µg/mL
MIC (Staphylococcus aureus [3]): 50 µg/mL (≈ 43.2 µM)

N=C(N)NCCC[C@H](NC(=O)[C@H](CCCNC(=N)N)NC(=O)[C@@H](N)CCCNC(=N)N)C(=O)N[C@H](C(=O)N[C@H](C(=O)N[C@H](C(=O)O)C(c1ccccc1)c1ccccc1)C(c1ccccc1)c1ccccc1)C(c1ccccc1)c1ccccc1 (H-RRR[Dip][Dip][Dip]-OH)
MIC (Escherichia coli): 6.2 µg/mL (≈ 5.36 µM)
MIC (Staphylococcus aureus [1]): 6.2 µg/mL (≈ 5.36 µM)
MIC (Pseudomonas aeruginosa): 25 µg/mL (≈ 21.6 µM)
HC50 at 2 h [2]: 120 µg/mL
MIC (Staphylococcus aureus [3]): 6.2 µg/mL (≈ 5.36 µM)

N=C(N)NCCC[C@H](NC(=O)[C@H](CCCNC(=N)N)NC(=O)[C@H](Cc1ccc2ccccc2c1)NC(=O)[C@H](Cc1ccc2ccccc2c1)NC(=O)[C@H](CCCNC(=N)N)NC(=O)[C@@H](N)CCCNC(=N)N)C(=O)N[C@@H](Cc1ccc2ccccc2c1)C(=O)O (H-RR[2Nal][2Nal]RR[2Nal]-OH)
MIC (Escherichia coli): 25 µg/mL (≈ 20.3 µM)
MIC (Staphylococcus aureus [1]): 12.5 µg/mL (≈ 10.1 µM)
MIC (Pseudomonas aeruginosa): 25 µg/mL (≈ 20.3 µM)
HC50 at 2 h [2]: 195 µg/mL
MIC (Staphylococcus aureus [3]): 25 µg/mL (≈ 20.3 µM)

N=C(N)NCCC[C@H](NC(=O)[C@H](CCCNC(=N)N)NC(=O)[C@@H](NC(=O)[C@@H](NC(=O)[C@H](CCCNC(=N)N)NC(=O)[C@@H](N)CCCNC(=N)N)C(c1ccccc1)c1ccccc1)C(c1ccccc1)c1ccccc1)C(=O)N[C@H](C(=O)O)C(c1ccccc1)c1ccccc1 (H-RR[Dip][Dip]RR[Dip]-OH)
MIC (Escherichia coli): 25 µg/mL (≈ 19 µM)
MIC (Staphylococcus aureus [1]): 12.5 µg/mL (≈ 9.52 µM)
MIC (Pseudomonas aeruginosa): 25 µg/mL (≈ 19 µM)
HC50 at 2 h [2]: 240 µg/mL
MIC (Staphylococcus aureus [3]): 12.5 µg/mL (≈ 9.52 µM)

N=C(N)NCCC[C@H](NC(=O)[C@H](Cc1ccc2ccccc2c1)NC(=O)[C@H](Cc1ccc2ccccc2c1)NC(=O)[C@H](CCCNC(=N)N)NC(=O)[C@H](CCCNC(=N)N)NC(=O)[C@H](Cc1ccc2ccccc2c1)NC(=O)[C@@H](N)CCCNC(=N)N)C(=O)O (H-R[2Nal]RR[2Nal][2Nal]R-OH)
MIC (Escherichia coli): 25 µg/mL (≈ 20.3 µM)
MIC (Staphylococcus aureus [1]): 12.5 µg/mL (≈ 10.1 µM)
MIC (Pseudomonas aeruginosa): 50 µg/mL (≈ 40.5 µM)
HC50 at 2 h [2]: 205 µg/mL
MIC (Staphylococcus aureus [3]): 25 µg/mL (≈ 20.3 µM)

N=C(N)NCCC[C@@H]1NC(=O)[C@H](CCCNC(=N)N)NC(=O)[C@H](Cc2ccc(-c3ccccc3)cc2)NC(=O)[C@H](Cc2ccc(-c3ccccc3)cc2)NC(=O)[C@H](Cc2ccc(-c3ccccc3)cc2)NC(=O)[C@H](CCCNC(=N)N)NC1=O (cyclo([Bip][Bip][Bip]RRR))
MIC (Escherichia coli): > 100 µg/mL
MIC (Staphylococcus aureus [1]): 50 µg/mL (≈ 43.9 µM)
MIC (Pseudomonas aeruginosa): > 100 µg/mL
MIC (Staphylococcus aureus [3]): 50 µg/mL (≈ 43.9 µM)

N=C(N)NCCC[C@@H]1NC(=O)[C@H](CCCNC(=N)N)NC(=O)[C@H](CCCNC(=N)N)NC(=O)[C@H](Cc2ccc(-c3ccccc3)cc2)NC(=O)[C@H](Cc2ccc(-c3ccccc3)cc2)NC(=O)[C@H](Cc2ccc(-c3ccccc3)cc2)NC(=O)[C@H](CCCNC(=N)N)NC1=O (cyclo([Bip][Bip][Bip]RRRR))
MIC (Escherichia coli): > 100 µg/mL
MIC (Staphylococcus aureus [1]): 3.1 µg/mL (≈ 2.39 µM)
MIC (Pseudomonas aeruginosa): 25 µg/mL (≈ 19.3 µM)
MIC (Staphylococcus aureus [3]): 6.2 µg/mL (≈ 4.79 µM)

N=C(N)NCCC[C@@H]1NC(=O)[C@H](CCCNC(=N)N)NC(=O)[C@H](CCCNC(=N)N)NC(=O)[C@H](Cc2ccc(-c3ccccc3)cc2)NC(=O)[C@H](Cc2ccc(-c3ccccc3)cc2)NC(=O)[C@H](Cc2ccc(-c3ccccc3)cc2)NC(=O)[C@H](Cc2ccc(-c3ccccc3)cc2)NC(=O)[C@H](CCCNC(=N)N)NC1=O (cyclo([Bip][Bip][Bip][Bip]RRRR))
MIC (Escherichia coli): > 100 µg/mL
MIC (Staphylococcus aureus [1]): 50 µg/mL (≈ 32.9 µM)
MIC (Pseudomonas aeruginosa): > 100 µg/mL
MIC (Staphylococcus aureus [3]): > 100 µg/mL
